Experimental findings from PMC12734371, “Synthesis, Anti-Tumour, and Antibacterial Activities of Monocarbonyl Curcumin Analogues of Piperidones” (International Journal of Molecular Sciences, 2025) are described below.

Converted amounts (≈) assume the structure as drawn.

Test [1] concerns A549 cells. The test is described as follows: MTT assay, inhibition of tumour cell growth. The class given is cell-based, human. The settings on record: 24 h, mean ± s. On the procedure:
(§1) The tumour cell suspension in logarithmic growth phase, containing about 5 × 10^3 cells, was taken and seeded onto a 96-well plate and gently shaken to disperse the cells evenly at the bottom of the plate. The cells were incubated in a constant temperature (37 °C) incubator for 24 h. The old medium was discarded, and 100 μL of the prepared working solution of piperidinone monocarbonyl curcumin analogues at different concentrations was added, and the cells were incubated in a constant temperature incubator for 24 h. Blank medium wells, blank cell wells, and 0.9% DMSO (highest content) wells were set up, with 6 multi-well and 3 multi-plates for each concentration. The discarded old medium was absorbed, and 100 μL of 10% 5 mg/mL MTT working solution was added to each well (operated away from light) and placed in a cell incubator for further incubation for 4 h. The old medium was discarded, and 100 μL of DMSO was added to each well and shaken in an air shaker at 100 RPM for 10 min. The absorbance of the OD value was measured at 490 nm by a multifunctional microplate analyzer. According to Formula (1), the inhibition rates of different piperidones monocarbonyl curcumin analograms on 4 tumour cells were calculated, and IC50 was calculated by GraphPad Prism 8.0:Inhibition rate (%) = (OD blank cell group − OD administration group)/OD blank cell group(1)
In general terms: Tetrazolium dyes change colour on reduction, which living cells bring about.

The next test deals with Hela cells. Nature of the test: MTT assay, inhibition of tumour cell growth. The class given is cell-based, human. The settings on record: 24 h, mean ± s, n = 3. On the procedure:
as §1

A further test concerns HepG2 cells. The test is described as follows: MTT assay, inhibition of tumour cell growth. The class given is cell-based, human. The settings on record: 24 h, mean ± s, n = 3. The method, then:
as §1

In a further test the test system is MCF-7 cells. Nature of the test: MTT assay, inhibition of tumour cell growth. The class given is cell-based, human. The settings on record: 24 h, mean ± s, n = 3. The method, then:
as §1

A further test has as its system L02 cells. Nature of the test: MTT assay, toxicity to human normal liver cells. The class given is cell-based. The settings on record: 24 h, mean ± s, n = 3. The method, then: The cells were passaged to the fourth generation of L02 cells, and the cell suspension containing about 5 × 10^3 cells was added to each well of the 96-well plate and cultured in a cell culture incubator for 24 h. The old medium was discarded, and different concentrations of liquid medicine (6 porous and 3 plates for each concentration) were added and incubated for 24 h. The old medium was discarded, 10% of 5 mg/mL MTT working solution was added in the dark, and the cells were incubated in a cell incubator for 4 h. The old medium was discarded, 100 μL DMSO was added to each well, and 100 RPM was oscillated on an air shaker for 10 min. The OD value was measured at 490 nm with a multifunctional microplate reader. According to the OD value, the inhibition rate of different piperidone monocarbonyl curcumin analogues on L02 cells was calculated according to Formula (1), and IC50 was calculated by Graph Pad Prism 8.0.

Test [2] has as its system A549 cells. Nature of the test: CCK-8 growth inhibition (dose and time action curves). Particulars: different concentrations, 4-72 h. The class given is cell-based, human. The method, then: A549 cells in the logarithmic growth phase and in a good growth state were collected. After routine digestion and centrifugation, the cells were diluted with DMEM low-glucose complete medium, suspended in a single cell state, and inoculated in 96-well plates. Each well was inoculated with 100 μL cell suspension containing 5 × 10^3 cells. The 96-well plate was shaken to disperse the cells evenly at the bottom of the cell orifice plate, and the cells were cultured in the cell incubator for 24 h. The old medium was discarded, complete medium containing different concentrations of liquid medicine was added, and the culture continued in the cell culture incubator. At 4, 6, 12, 24, 48, and 72 h, the old medium was discarded and 100 μL of medium containing 10% CCK-8 was added. The medium was placed in the cell incubator and continued to incubate for 2 h. The OD value was measured at 450 nm with an enzyme calibration and the inhibition rate of different compounds at different concentrations was calculated. GraphPad Prism 8.0 was used to plot the inhibition rate of cell growth at different concentrations of the five major compounds. The drug duration curves were plotted with time as the X-axis and inhibition rate as the Y-axis.

In test [3] the test system is A549 cells. Nature of the test: Cell wound scratch assay (migration). It counts as cell-based, human. The settings on record: 6 h; high, medium, and low concentrations. On the procedure: A549 cells in logarithmic phase were digested with 0.25% trypsin and blown to single cell suspension with a dropper. The cell density was adjusted to 5 × 10^5 cells/mL. The cells were inoculated on 6-well plates, 2 mL per well, and cultured in a cell incubator at 37 °C, 5% CO2, and saturated humidity for 24 h until the gaps were basically fused. A 10 μL micro pipette tip was used to scratch vertically in a 6-well plate. After washing with PBS solution 3 times, the drug-containing medium was added, 2 mL per well, and three wells were set in each group. The culture plates were placed in a 5% CO2 incubator at 37 °C for 6 h and 24 h and observed and photographed with an inverted fluorescence microscope. The images were obtained by NIS Elements Viewer 4.2.0, and the scratch area and width were calculated. The cell migration rate was calculated by Formula (2):[Cell migration rate (%) = (0 h scratch area − scratch area at different times)/0 h scratch area × 100%](2)

For test [4], the system named is A549 cells. Nature of the test: Cell morphology by inverted microscope. The class given is cell-based, human. The settings on record: 5 μmol/L, 24 h. On the procedure:
The cells were inoculated in a 6-well plate, and about 1 × 10^6 A549 cells in the logarithmic growth phase were inoculated in each well. After the cells were cultured in a constant temperature incubator for 24 h, the old medium was discarded, and five kinds of piperidone monocarbonyl curcumin analogue solution (5, 10, and 20 μmol/L), curcumin (10, 20, and 40 μmol/L), and 0.9% DMSO were added as the blank control group for 24 h, and then the cell morphology was observed by inverted microscope (200×).

The test system of test [5] is ERK (extracellular regulated protein kinases). The test is described as follows: Western blot, ERK level in A549 cells. The class given is cell-based, human. The settings on record: 10, 5, 2.5 μmol/L, 24 h. The method, then:
(§2) A549 cells in logarithmic growth phase were seeded in 6-well plates at 1 × 10^6 cells/mL per well. The cells were cultured overnight in an incubator. Different concentrations of drug-containing medium of 2,5-2Cl, 2Br-5Cl, 2-Cl, 2-F, benzaldehyde ([…]), curcumin (20 μmol/L), and cisplatin (30 μmol/L) were added, and the blank control […] The RIPA cell lysis buffer containing protease inhibitors was added to the Petri dish to collect the proteins of each experimental group, and the supernatant was collected as a protein sample after ultrasonic centrifugation. Protein quantification was performed by the BCA method. A total of 20 μg protein was separated by 10% SDS-PAGE, and then the protein was transferred to a PVDF membrane. The membrane was blocked with 5% skim milk for 1 h, and the corresponding primary antibody was incubated at 4 °C overnight. After washing the membrane three times with TBST, the bands were incubated with the corresponding secondary antibodies at room temperature for 1 h. After cleaning the membrane with TBST 3 times, the darkroom was developed with ECL luminescence. Using GAPDH as an internal reference, the protein bands were analyzed by ImageJ 1.8.0.
(In western blotting, separated proteins are transferred to a membrane and probed.)

For test [6], the system named is MRSA. The test is described as follows: Broth microdilution inhibition test and MIC. It counts as cell-based, methicillin-resistant Staphylococcus aureus. The method, then: Then, the MIC values of 100% compounds at the maximum inhibitory concentration were obtained by the broth microdilution method. The specific experiments are as follows: First, in the 96-well plate, add 100 μL of compound working solution from column 2 to column 8, with concentrations decreasing from high to low, repeating each concentration 6 times. Add 100 μL of NB nutrient broth containing 1% DMSO to column 9, and 100 μL of blank NB nutrient broth to columns 10 and 11. Then, add 10 μL of bacterial suspension to each well from columns 2 to 10. Place the 96-well plate in a 37 °C incubator for 16 h at 100 rpm and measure the absorbance at 600 nm by microplate reader. Columns 2 to 9 represent the drug treatment group, column 10 is the negative control group, and column 11 is the blank control group. The minimum concentration that inhibits bacterial growth is the MIC value of the compound: Bacterial inhibition rate (%) = (OD administration − OD control)/(ODcontrol − OD blank) (3)
On the technique in general: In broth dilution the organism is exposed to a series of concentrations in liquid medium.

In test [7] the test system is MRSA. The test is described as follows: Time inhibition curve against MRSA. The class given is cell-based, methicillin-resistant Staphylococcus aureus. The settings on record: 160 μmol/L and 80 μmol/L. On the procedure:
Based on the results of previous experiments, the promising compounds were selected. According to the administration method under ‘2.3.2’, the absorbance values of the promising compounds at 600 nm at different concentrations of bacteria at 4, 14, 18, and 24 h were measured by a microplate reader, and the inhibitory effect of the compounds on MRSA at different time points was calculated. The time inhibition curve of the compound against MRSA was made with the abscissa as the time and the ordinate as the bacterial inhibition rate.

Test [8] concerns MRSA. Nature of the test: AGAR plate zone of inhibition test (filter paper). It counts as cell-based, methicillin-resistant Staphylococcus aureus. Particulars: 160 μmol/L, 6 mm filter paper, 16 h, mean ± s, n = 3. On the procedure: Based on the results of previous experiments, the promising compounds were selected, and the size of the inhibition zone at 160 μmol/L was determined. The specific operation was as follows: The nutrient agar medium, after high temperature sterilization, was poured into about 20 mL per 9 cm plate in an ultra-clean bench and naturally cooled and solidified. Each plate was evenly coated with 100 μL MRSA bacterial suspension. The filter paper of 6 mm diameter soaked in the drug solution was dried by flame evaporation, and four tablets were placed in parallel into each plate, cultured in a constant temperature incubator at 37 °C for 16 h, and the size of the inhibition zone was measured.

Test [9] concerns A549 cells. Nature of the test: Flow cytometry apoptosis (Annexin V/PI). It counts as cell-based, human. Particulars: 24 h; 5, 2.5, 1.25 μmol/L. On the procedure: The A549 cells in logarithmic growth phase were inoculated in 6-well plates at 1 × 10^6 cells. After resting in the incubator for 24 h, the cells were treated with different concentrations of drugs. The blank control group was added with the medium with the highest concentration of DMSO. After 24 h of culture, cells were collected, washed with PBS, transferred to a flow tube, and resuspended with 100 μL of 1 × Annexin V conjugate. Add 4 μL YF4/88-Annexin N and 5 μL PI working solution. The cells were incubated in the dark at room temperature for 10 min, transferred to a flow cytometer tube, added with 200 μL of 1 × Annexin V conjugate, and immediately detected by flow cytometry.

The subject of the next test is AKT (protein kinase B). Nature of the test: Western blot, AKT level in A549 cells. It counts as cell-based, human. The settings on record: 10, 5, 2.5 μmol/L, 24 h. The method, then:
as §2

Broadly, the IC50 is the concentration needed to halve the response being measured. Low values mean inhibition by little substance, high ones a need for much substance. Turning to “3,5-Dibenzylidene-4-piperidone [Benzaldehyde]”, the IC50 in the test on A549 cells [1] (n = 3) was 4.66 ± 2.39 µM; in the test with A549 cells [1] (n = 3, listed as benzaldehyde), below 5 µM; with Hela cells it was 12.4 ± 2.91 µM; with HepG2 cells, 10.3 ± 1.88 µM; with MCF-7 cells it was 5.88 ± 1.44 µM; in the test on L02 cells, 52.4 ± 1.89 µM. For the same compound, the “Inhibition of A549 cell growth (CCK-8)” value in the test on A549 cells [2] is “weak at low concentrations”. Also, in the test with A549 cells [3], the “Cell migration rate vs blank control (0.9% DMSO)” value (“Cell migration rate … (0.9% DMSO)” for short) was “no statistical difference”.

For orientation: MIC means the least concentration at which growth counts as inhibited. The low end stands for inhibition by little substance, the high end for a need for much substance. `O=C1C(=Cc2ccccc2Cl)CNCC1=Cc1ccccc1Cl` [2-Cl]: the IC50 was 4.81 ± 1.69 µM in the test with A549 cells [1] (n = 3); 6.61 ± 1.93 µM in the test with Hela cells; 8.53 ± 2.61 µM in the test on HepG2 cells; 5.7 ± 1.21 µM in the test with MCF-7 cells; 70.5 ± 1.85 µM in the test on L02 cells. In addition, in the test with A549 cells [3], the “Cell migration rate … (0.9% DMSO)” value is on record as “no statistical difference”. The Cell morphology entry in the test on A549 cells [4] was “most of the cells became round and loose”. For the same compound, the “ERK protein level vs control group” value in [5] is “significantly lower”. Besides, the results for the “Inhibition rate of MRSA” value with MRSA [6] (60 μmol/L) and in the test on MRSA [6] (70 μmol/L) were “less than 100%” and 100%, respectively. Also, the “Inhibition of MRSA” value in the test on MRSA [6] (160 μmol/L) is on record as 100%. This compound also yielded an MIC in the test with MRSA [6] (MRSA, broth microdilution) of 70 µM (≈ 24.1 µg/mL). Also, the “Inhibition rate of MRSA over time” value came to 100% in the test with MRSA [7] (18 h) and 87.02% in the test on MRSA [7] (24 h). For the same compound, the “Diameter of Bacteriostatic Zone” value in the test on MRSA [8] worked out at 14.67 ± 0.58 mm.

Consider `O=C1C(=Cc2cc(Cl)ccc2Cl)CNCC1=Cc1cc(Cl)ccc1Cl` [2,5-2Cl], for which the IC50 with A549 cells [1] (n = 3) came out at 2.87 ± 2.09 µM; in the test on Hela cells, 6.62 ± 2.1 µM; in the test with HepG2 cells, 9.66 ± 1.09 µM; in the test on MCF-7 cells, 4.72 ± 1.48 µM; in the test on L02 cells, 48.6 ± 3.59 µM. For the same compound, the “Cell migration rate … (0.9% DMSO)” value in the test with A549 cells [3] was “no statistical difference”. The Cell morphology result with A549 cells [4] is “most of the cells became round and loose”. For the same compound, in the test with A549 cells [9], the “Apoptosis-inducing effect on A549 cells” value was “strongest”. For the same compound, the “Expression level of AKT protein vs control group” value in the test on AKT (protein kinase B) is “most obvious”. For the same compound, in test [5], the “ERK protein level vs control group” value is listed as “significantly lower”.
